Measurements from US20090291928A1, “COMPOSITION FOR AMELIORATION/PREVENTION OF ADVERSE SIDE EFFECT IN STEROID THERAPY” (AJINOMOTO CO., INC., priority 2006, published 2009).

System: dexamethasone administered rat
Assay: Muscular atrophy prophylactic effect of BCAA in dexamethasone administered rat (Example 1)
Type: in vivo
Conditions: effect of dexamethasone administration itself, 600 μg/kg i.p. 5 days
Experimental: Dexamethasone (600 μg/kg) was intraperitoneally administered to rats (SD; 10-11-week-old) for 5 consecutive days. An isoleucine, leucine and valine (weight ratio 1:2:1.2) blend (BCAA) administration group was orally administered with 0.75 g/kg of BCAA above simultaneously for 5 consecutive days. A vehicle group was orally administered with distilled water consecutively in the same manner.
On day 5, the rats were autopsied and analyzed for muscular strength function evaluation, blood glucose level and plasma insulin level using a feed intake, body weight profile, muscle weight, grip strength measurement apparatus.
As the control group, pair-feeding normal rats were used.

blood glucose level (SD rats (FIG. 4)): increased | insulin level (SD rats (FIG. 5)): increased
Structure (SMILES): C[C@@H]1C[C@H]2[C@@H]3CCC4=CC(=O)C=C[C@]4(C)[C@@]3(F)[C@@H](O)C[C@]2(C)[C@@]1(O)C(=O)CO [dexamethasone]
